Assay results reported in US8742115B2, “Co-crystals and salts of CCR3-inhibitors” (Boehringer Ingelheim International GmbH, priority 2010, dated 2014).

Target: human chemokine receptor CCR3 (Homo sapiens (Human), UniProt P51677)
Experiment: CCR3 receptor binding assay (SPA, 125I-eotaxin-1)
Conditions: human Eotaxin-1 at human CCR3-Rezeptor; membranes of hCCR3-C1 (transfected K562) cells
Procedure: The CCR3 receptor binding test is based on a K562 cell line (leukemia myelogenic blast cells) transfected with the human chemokine receptor CCR3 (hCCR3-C1 cells). The cell membranes were prepared by disrupting the hCCR3-C1 cells by […]. The preparation was centrifuged at 400 g 4° C. for 30 min. The supernatant was transferred into fresh tubes followed by a second centrifugation at 48000 g, 4° C. for 1 h. The membranes were re-suspended in the SPA incubation buffer (25 mM HEPES, 25 mM MgCl2 6×H2O, 1 mM CaCl2 2×H2O) without bovine serum albumin and homogenized by passing through a single use needle (Terumo, 23Gx1″). The membranes were stored in aliquots at −80° C.
The CCR3 receptor binding assay was performed in a Scintillation Proximity Assay (SPA) design with the radioligand recombinant human ^125Iodine-eotaxin-1. Cell membranes of hCCR3 C1 cells were again homogenized by passing through a single use needle (Terumo, 23Gx1″) and diluted in SPA incubation buffer in suitable concentrations (0.5-10 μg protein/well) in 96 well microtiter plates (1450-514, Perkin Elmer). The SPA assay was set up in the SPA incubation buffer with a final volume of 200 μl and final concentration of 25 mM HEPES, 25 mM MgCl2 6×H2O, 1 mM CaCl2 2×H2O and 0.1% bovine serum albumin. The SPA assay mixture contained 60 μl of the membrane suspension, 80 μl of Wheat Germ Agglutinin coated PVT beads (organic scintillator, GE Healthcare, RPNQ-0001) 0.2 mg/well), 40 μl of recombinant human ^125Jodine-eotaxin-1 (Biotrend), diluted in SPA buffer to a final concentration of 30.000 dpm per well, and 20 μl of the test compound (dissolved in DMSO dilutions). The SPA assay mixture was incubated for 2 h at room temperature. Bound radioactivity was determined with a scintillation counter (Micro Beta “Trilux”, Wallac). Included were controls for total binding (no displacer added, Bo) and non-specific binding (NSB) by adding unlabelled recombinant human Eotaxin-1 (Biotrend, Cat #300-21) or a reference compound.
Determination of the affinity of a test compound was calculated by subtraction of the non-specific binding (NSB) from the total binding (Bo) or the binding in the presence of the test compound (B) at a given compound concentration. The NSB value was set to 100% inhibition. The Bo-NSB value was set to 0% inhibition.

Chain of human chemokine receptor CCR3 (P51677 whole entry): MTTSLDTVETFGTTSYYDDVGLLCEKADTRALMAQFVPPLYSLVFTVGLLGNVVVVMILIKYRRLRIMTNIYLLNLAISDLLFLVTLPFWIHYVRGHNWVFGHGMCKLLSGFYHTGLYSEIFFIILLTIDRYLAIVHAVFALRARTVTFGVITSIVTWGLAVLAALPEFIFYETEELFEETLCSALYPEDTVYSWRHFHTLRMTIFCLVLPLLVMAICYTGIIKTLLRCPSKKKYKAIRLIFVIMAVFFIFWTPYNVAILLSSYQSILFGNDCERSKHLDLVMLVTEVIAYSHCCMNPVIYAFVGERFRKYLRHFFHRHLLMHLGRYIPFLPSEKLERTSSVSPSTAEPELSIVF

Ki | Structure (SMILES)
23.4 nM | CNC(=O)c1ccnc(NC(=O)[C@H]2CCC(=O)N2C2CCN(Cc3ccc(Cl)c(C)c3)CC2)c1 [Example 1]
69.6 nM | Cc1cccc(NC(=O)[C@H]2CCC(=O)N2C2CCN(Cc3ccc(Cl)c(C)c3)CC2)n1 [Example 2]
46.5 nM | COc1ccnc(NC(=O)[C@H]2CCC(=O)N2C2CCN(Cc3ccc(Cl)c(C)c3)CC2)c1 [Example 3]
67.5 nM | Cc1ccnc(NC(=O)[C@H]2CCC(=O)N2C2CCN(Cc3ccc(Cl)c(C)c3)CC2)c1 [Example 4]
197 nM | CCc1ccnc(NC(=O)[C@H]2CCC(=O)N2C2CCN(Cc3ccc(Cl)c(C)c3)CC2)c1 [Example 5]
72 nM | CNC(=O)c1cccc(NC(=O)[C@H]2CCC(=O)N2C2CCN(Cc3ccc(Cl)c(C)c3)CC2)n1 [Example 6]
10.4 nM | CNC(=O)c1cc(C)nc(NC(=O)[C@H]2CCC(=O)N2C2CCN(Cc3ccc(Cl)c(C)c3)CC2)c1 [Example 7]
8.5 nM | Cc1cc(CN2CCC(N3C(=O)CC[C@@H]3C(=O)Nc3cc(C(=O)N(C)C)ccn3)CC2)ccc1Cl [Example 8]
0.9 nM | Cc1cc(C(=O)N2CCCC2)cc(NC(=O)[C@H]2CCC(=O)N2C2CCN(Cc3ccc(Cl)c(C)c3)CC2)n1 [Example 9]
3.2 nM | Cc1cc(C(=O)N(C)C)cc(NC(=O)[C@H]2CCC(=O)N2C2CCN(Cc3ccc(Cl)c(C)c3)CC2)n1 [Example 11]
4.7 nM | Cc1cc(CN2CCC(N3C(=O)CC[C@@H]3C(=O)Nc3cc(C(=O)N4CCCC4)ccn3)CC2)ccc1Cl [Example 12]
19.1 nM | Cc1cc(CN2CCC(N3C(=O)CC[C@@H]3C(=O)Nc3cc(C(=O)N4CCOCC4)ccn3)CC2)ccc1Cl [Example 13]
1400 nM | Cc1cc(CN2CCC(N3C(=O)CC[C@@H]3C(=O)N(C)c3ccccn3)CC2)ccc1Cl [Example 14]
3.5 nM | Cc1cc(C(=O)NCC2CC2)cc(NC(=O)[C@H]2CCC(=O)N2C2CCN(Cc3ccc(Cl)c(C)c3)CC2)n1 [Example 15]
6.8 nM | Cc1cc(C(=O)N2CCC2)cc(NC(=O)[C@H]2CCC(=O)N2C2CCN(Cc3ccc(Cl)c(C)c3)CC2)n1 [Example 16]
4.3 nM | Cc1cc(C(=O)NCC(C)C)cc(NC(=O)[C@H]2CCC(=O)N2C2CCN(Cc3ccc(Cl)c(C)c3)CC2)n1 [Example 17]
4.6 nM | Cc1cc(C(=O)NCC(F)F)cc(NC(=O)[C@H]2CCC(=O)N2C2CCN(Cc3ccc(Cl)c(C)c3)CC2)n1 [Example 18]

Ki | Structure (SMILES)
4 nM | CCC(C)NC(=O)c1cc(C)nc(NC(=O)[C@H]2CCC(=O)N2C2CCN(Cc3ccc(Cl)c(C)c3)CC2)c1 (stereo partly shown) [Example 19]
5.2 nM | CCC(C)N(C)C(=O)c1cc(C)nc(NC(=O)[C@H]2CCC(=O)N2C2CCN(Cc3ccc(Cl)c(C)c3)CC2)c1 (stereo partly shown) [Example 21]
2.3 nM | Cc1cc(C(=O)N(C)C(C)C)cc(NC(=O)[C@H]2CCC(=O)N2C2CCN(Cc3ccc(Cl)c(C)c3)CC2)n1 [Example 22]
4.2 nM | Cc1cc(C(=O)NC2CCC2)cc(NC(=O)[C@H]2CCC(=O)N2C2CCN(Cc3ccc(Cl)c(C)c3)CC2)n1 [Example 23]
5.8 nM | Cc1cc(C(=O)N(C)C)cc(NC(=O)[C@H]2CCC(=O)N2C2CCN(Cc3ccc(Br)c(C)c3)CC2)n1 [Example 24]
8.3 nM | CCc1cc(C(=O)N(C)C)cc(NC(=O)[C@H]2CCC(=O)N2C2CCN(Cc3ccc(Cl)c(C)c3)CC2)n1 [Example 25]
232 nM | COc1cc(C(=O)N(C)C)cc(NC(=O)[C@H]2CCC(=O)N2C2CCN(Cc3ccc(Cl)c(C)c3)CC2)n1 [Example 26]
414 nM | CCCCc1cc(C(=O)N(C)C)cc(NC(=O)[C@H]2CCC(=O)N2C2CCN(Cc3ccc(Cl)c(C)c3)CC2)n1 [Example 27]
17.8 nM | Cc1cc(C(=O)N(C)C)cc(NC(=O)[C@H]2CCC(=O)N2C2CCN(Cc3ccc(Cl)c(Cl)c3)CC2)n1 [Example 28]
4.1 nM | Cc1cc(CN2CCC(N3C(=O)CC[C@@H]3C(=O)Nc3cc(C(=O)N(C)C)cc(C(C)C)n3)CC2)ccc1Cl [Example 29]
70.3 nM | Cc1cc(C(=O)N(C)C)cc(NC(=O)[C@H]2CCC(=O)N2C2CCN(Cc3ccc(F)c(C)c3)CC2)n1 [Example 30]
87.2 nM | Cc1cc(C(=O)N(C)C)cc(NC(=O)[C@H]2CCC(=O)N2C2CCN(Cc3ccc(Cl)c(C(F)(F)F)c3)CC2)n1 [Example 31]
2.3 nM | Cc1cc(CN2CCC(N3C(=O)CC[C@@H]3C(=O)Nc3cc(C(=O)N(C)C)cc(C4CC4)n3)CC2)ccc1Cl [Example 32]
7.9 nM | CCc1cc(CN2CCC(N3C(=O)CC[C@@H]3C(=O)Nc3cc(C(=O)N(C)C)cc(C)n3)CC2)ccc1Cl [Example 33]
7.9 nM | C#Cc1cc(C(=O)N(C)C)cc(NC(=O)[C@H]2CCC(=O)N2C2CCN(Cc3ccc(Cl)c(C)c3)CC2)n1 [Example 34]
61.3 nM | Cc1cc(C(=O)N(C)C)cc(NC(=O)[C@H]2CCC(=O)N2C2CCN(Cc3cc(C)c(Cl)c(C)c3)CC2)n1 [Example 35]
1.7 nM | CCN(C)C(=O)c1cc(C)nc(NC(=O)[C@H]2CCC(=O)N2C2CCN(Cc3ccc(Cl)c(C)c3)CC2)c1 [Example 36]
